Where a name gives a salt, the structure may show the parent alone. Read-outs that look alike come from different tables or passages of the source. Marks after values point to notes of the source that are not given here.

This assay deals with store-operated Ca^2+ entry in PLP-B lymphocytes. Description: Store-operated Ca2+ entry after thapsigargin depletion of ER Ca2+ stores in PLP-B lymphocytes. The format is cell-based. The protocol: The effects of the molecules developed were tested on PLP-B lymphocytes. Store-operated Ca^2+ entry was induced by depletion of Endoplasmic Reticulum Ca^2+ stores (ER Ca^2+ stores) with thapsigargin (Tg) in a Ca^2+-free medium and measured following the addition of 1.8 mM of CaCl2) in the extracellular medium. The results are compared to the results obtained for known SOCE inhibitors SKF-96365, GSK-7975A, Synta 66.

The mark [1] stands for this setting: Lymphocyte, PLP-B lymphocytes, % of inhibition (−) or activation, DMSO control 100%, read-out: Effect on amplitude of SOCE Peak.
Setting [2] is: Lymphocyte, thapsigargin (Tg) peak, PLP-B lymphocytes, % of inhibition (−) or activation, read-out: Effect on amplitude of Tg Peak.
Where [3] appears, read: Lymphocyte, 10 μM, PLP-B lymphocytes, % of inhibition (−) or activation, DMSO control 100%, read-out: Effect on amplitude of SOCE Peak.
Setting [4] is: Lymphocyte, 10 μM, thapsigargin (Tg) peak, PLP-B lymphocytes, % of inhibition (−) or activation, read-out: Effect on amplitude of Tg Peak.
Where [5] appears, read: Lymphocyte, 50 μM, PLP-B lymphocytes, % of inhibition (−) or activation, DMSO control 100%, read-out: Effect on amplitude of SOCE Peak.
[6] abbreviates: Lymphocyte, 50 μM, thapsigargin (Tg) peak, PLP-B lymphocytes, % of inhibition (−) or activation, read-out: Effect on amplitude of Tg Peak.
Setting [7] is: Lymphocyte, 100 μM, PLP-B lymphocytes, % of inhibition (−) or activation, DMSO control 100%, read-out: Effect on amplitude of SOCE Peak.
Setting [8] is: Lymphocyte, 100 μM, thapsigargin (Tg) peak, PLP-B lymphocytes, % of inhibition (−) or activation, read-out: Effect on amplitude of Tg Peak.
The mark [9] stands for this setting: 10 μM, PLP-B lymphocytes, % of inhibition (−) or activation, DMSO control 100%.
[10] abbreviates: 10 μM, thapsigargin (Tg) peak, PLP-B lymphocytes, % of inhibition (−) or activation.
Setting [11] is: 50 μM, PLP-B lymphocytes, % of inhibition (−) or activation, DMSO control 100%.
Setting [12] is: 50 μM, thapsigargin (Tg) peak, PLP-B lymphocytes, % of inhibition (−) or activation.
[13] abbreviates: 100 μM, PLP-B lymphocytes, % of inhibition (−) or activation, DMSO control 100%.
Setting [14] is: 100 μM, thapsigargin (Tg) peak, PLP-B lymphocytes, % of inhibition (−) or activation.

Turning to `c1ccc2c(c1)ncn2CCc1ccc(OCCc2ccc(OC3CCCCO3)cc2)cc1` (stereo not shown) [11αb, 1-(4-(4-((Tetrahydro-2H-pyran-2-yl)oxy)phenethoxy)phenethyl)-1H-benzo[d]imidazole], the inhibition at 0.1 µM runs as follows: under setting [1], -28%; under setting [2], -11%. Where the note is “Lymphocyte, 1 μM, PLP-B lymphocytes, % of inhibition (−) or activation, DMSO control 100%, read-out: Effect on amplitude of SOCE Peak”, the inhibition at 1 µM was -41%. Further, the percent change in peak amplitude vs DMSO control (negative = inhibition, positive = activation) at 1 µM (Lymphocyte, 1 μM, thapsigargin (Tg) peak, PLP-B lymphocytes, % of inhibition (−) or activation, read-out: Effect on amplitude of Tg Peak) stood at 0%. Besides, the inhibition at 5 µM under setting [1] was -16% and the inhibition at 5 µM under setting [2] is 2%. Further, the inhibition at 10 µM under setting [3] was determined as 29% and the inhibition at 10 µM under setting [4] was -2%. Moreover, the inhibition at 50 µM by setting is: under setting [5], 51%; under setting [6], 2%. The IC50 (Lymphocyte, SOCE in PLP-B lymphocytes, average of three assays, ±0.5 μM) turned out to be 6.8 µM.

In the case of `COCOc1ccc(CCn2cnc3ccccc32)cc1` [6αad VAL3.31, 1-(4-(Methoxymethoxy)phenethyl)-1H-benzo[d]imidazole], the inhibition at 10 µM under setting [3] was -51% and the inhibition at 10 µM under setting [4] came to 10%. The inhibition at 50 µM runs as follows: under setting [5], -54%; under setting [6], 9%. The inhibition at 100 µM was -5% under setting [7] and 15% under setting [8].

As to `COc1ccc(CCOc2ccc(CCn3nc(C(F)(F)F)cc3C(F)(F)F)cc2)cc1` [6βv DAD 2.266], the inhibition at 50 µM under setting [5] stood at 29%. For the same compound, the inhibition at 100 µM under setting [7] worked out at 30%.

As to `COc1ccc(CCCOc2cccc(CCn3ccc(C(F)(F)F)n3)c2)cc1` [6βy DAD 3.531], the inhibition at 10 µM is, setting by setting: under setting [3], 13%; under setting [4], 17%. The inhibition at 50 µM under setting [5] was 34% and the inhibition at 50 µM under setting [6] was found to be 23%. In addition, the inhibition at 100 µM by setting is: under setting [7], 64%; under setting [8], 30%.

Consider “1-(4-(Methoxymethoxy)-2-(trifluoromethyl)-1H-benzo[d]imidazole [6αaf VAL3.33]”, for which the “Effect on amplitude of SOCE peak” value runs as follows: under setting [9], 40.0# %; under setting [11], 1.0%; under setting [13], −2.0%. For the same compound, the “Effect on amplitude of Tg Peak” value reads like this: under setting [10], −29.0# %; under setting [12], −34.0# %; under setting [14], −38.0# %.

As for `CS(=O)(=O)Oc1ccc(Cn2cccn2)cc1` [8βa, 4-((1H-Pyrazol-1-yl)methyl)phenylmethanesulfonate], the “Effect on amplitude of SOCE peak” value under setting [9] was −30.0# %, the “Effect on amplitude of SOCE peak” value under setting [11] is given as −27.0# % and the “Effect on amplitude of SOCE peak” value under setting [13] is −25.0# %. Further, the “Effect on amplitude of Tg Peak” value reads like this: under setting [10], −20.0# %; under setting [12], −14.0// %; under setting [14], −12.0// %.

On to `COc1ccc(COc2ccc(CCn3cnc4ccccc43)cc2)cc1` [6αz DAD 4-472], for which the inhibition at 10 µM reads like this: under setting [3], 15.4%; under setting [4], 1.6%. In addition, the inhibition at 50 µM reads like this: under setting [5], 13.7%; under setting [6], 1.9%. Besides, the inhibition at 100 µM under setting [7] is -5.9% and the inhibition at 100 µM under setting [8] was found to be 1.5%.

Consider `Oc1ccc(CCOc2ccc(CCn3cnc4ccccc43)cc2)cc1` [12αb, 1-(4-(4-Hydroxyphenethoxy)phenethyl)-1H-benzo[d]imidazol hydrochloride], for which the inhibition at 10 µM is -25% under setting [3] and -7% under setting [4]. Besides, the inhibition at 50 µM was -1% under setting [5] and -4% under setting [6]. Under setting [7], the inhibition at 100 µM turned out to be 3%. The percent change in peak amplitude vs DMSO control (negative = inhibition, positive = activation) at 100 µM under setting [8] came to 0%.

Turning to `Oc1ccc(CCn2cnc3cc(F)ccc32)cc1` [12αd, 5-Fluoro-1-(4-hydroxyphenylethyl)-1H-benzo[d]imidazol hydrochloride], the inhibition at 10 µM runs as follows: under setting [3], -2.7%; under setting [4], -6%. The inhibition at 50 µM runs as follows: under setting [5], -3%; under setting [6], -4.2%. For the same compound, the inhibition at 100 µM reads like this: under setting [7], 6.4%; under setting [8], -4.6%.

Turning to `COc1ccc(CCCOc2ccc(CCn3ncc4ccccc43)cc2)cc1` [6αaa DAD 4-574], the inhibition at 10 µM under setting [3] worked out at 10.4% and the inhibition at 10 µM under setting [4] came out at 23.1%. For the same compound, the inhibition at 50 µM amounted to 16.4% under setting [5] and 13.3% under setting [6]. Further, the inhibition at 100 µM reads like this: under setting [7], 31.6%; under setting [8], 19.7%.

Regarding `COCOc1ccc(CCn2ncc3ccccc32)cc1` [6αae VAL3.32, 1-(4-(Methoxymethoxy)phenethyl)-1H-indazole], the inhibition at 10 µM by setting is: under setting [3], -39%; under setting [4], 26%. Besides, the inhibition at 50 µM was -23% under setting [5] and 19% under setting [6]. Further, the inhibition at 100 µM under setting [7] is 24% and the inhibition at 100 µM under setting [8] worked out at 27%.

Take `COc1ccc(COc2ccc(CCn3cnc(C(F)(F)F)n3)cc2)cc1` [6βg DAD 3.472]: the inhibition at 50 µM runs as follows: under setting [5], 5%; under setting [6], 18%. In addition, the inhibition at 100 µM is, setting by setting: under setting [7], 37%; under setting [8], 25%.

On to `c1ccc(CCOc2ccc(CCn3cnc4ccccc43)cc2)cc1` [6αab DAD 4-553], for which the inhibition at 50 µM worked out at 2% under setting [5] and 1% under setting [6]. In addition, the inhibition at 100 µM is 46% under setting [7] and 8% under setting [8].

Take `COc1ccc(CCOc2ccc(CCn3cnc4c(Cl)cc(C(F)(F)F)cc43)cc2)cc1` [6αe DAD 4-548, 4-Chloro-1-(4-(4-methoxyphenethoxy)phenethyl)-6-(trifluoromethyl)-1H-benzo[d]imidazole]: the inhibition at 50 µM reads like this: under setting [5], 28%; under setting [6], -5%. Also, the inhibition at 100 µM under setting [7] came out at 9% and the inhibition at 100 µM under setting [8] is -1%.

As to `c1ccc(CCCOc2ccc(CCn3ncc4ccccc43)cc2)cc1` [6αab DAD 4-575], the inhibition at 10 µM was -20.8% under setting [3] and 8.9% under setting [4]. Also, the inhibition at 50 µM under setting [5] was 2.9% and the inhibition at 50 µM under setting [6] came to 20.7%. Further, the inhibition at 100 µM by setting is: under setting [7], 43.6%; under setting [8], 24.2%.

In the case of `Oc1ccc(CCOc2ccc(CCn3cnc4cc(F)ccc43)cc2)cc1` [12αc, 5-Fluoro-1-(4-(4-hydroxyphenethoxy)phenethyl)-1H-benzo[d]imidazol hydrochloride], the inhibition at 10 µM runs as follows: under setting [3], -20%; under setting [4], -11%. For the same compound, the inhibition at 50 µM is -3% under setting [5] and -2% under setting [6]. In addition, the inhibition at 100 µM runs as follows: under setting [7], -1%; under setting [8], -5%.

Consider `COc1ccc(CCOc2ccccc2CCn2nc(C(F)(F)F)cc2C(F)(F)F)cc1` [6βz DAD 3.536], for which the inhibition at 10 µM by setting is: under setting [3], 30%; under setting [4], 9%. Moreover, the inhibition at 50 µM was 37% under setting [5] and 12% under setting [6]. Besides, the inhibition at 100 µM under setting [7] was 40% and the inhibition at 100 µM under setting [8] worked out at 8%.

For the origin of these results see patent US12686664B2, “SOCE inhibitors and therapeutic uses thereof” (Institut National de la Santé et de la Recherche Médicale …, priority 2020, dated 2026).
